Laboratory results as given in patent US11129870B2, “Compositions and methods for uncoupling TrkB receptor from PLC gamma 1 for the treatment of epilepsy and anxiety-like disorder” (DUKE UNIVERSITY, priority 2010, dated 2021).
Where no end group is shown, it is not given here. [ ]: non-standard residue; d: D form. pY = N[C@@H](Cc1ccc(OP(=O)(O)O)cc1)C(=O)O

How the values were obtained:
[1] = test system: PLCγ1; test: SE-induced activation of PLCγ1 in hippocampus, peptide given i.v. after SE; assay type: in vivo, mouse; conditions: 6 hr later
Description: Surgery and microinfusion studies provided in Examples 10-14 were performed as described here. Surgery and microinfusion of KA into right amygdala of adult mice was performed as previously described (Liu, G. et al., (2013) Neuron 79:31-38). Briefly, mice were anesthetized with pentobarbital (60 mg/kg, intraperitoneally [i.p.]) and placed in a stereotaxic frame. A guide cannula was stereotactically placed above the right amygdala (coordinates from bregma: AP=−1.2 mm; ML=3.0 mm). A bipolar electrode was placed in the left dorsal hippocampus (coordinates from bregma: AP=−2.0 mm; ML=−1.6 mm; DV=−1.5 mm). A ground electrode connected to a screw was placed in the skull above the cerebellum. After a postoperative recovery period of 7 days, the animal was gently restrained and an infusion cannula was inserted into the right amygdala through the guide cannula at the depth of 3.7 mm below dura. […]
Animals were anesthetized with pentobarbital (200 mg/kg i.p.) and decapitated, and the head was quickly immersed in liquid nitrogen for 4 s to rapidly cool the brain. […] The immunoreactivity of individual bands on western blots was measured by ImageJ software (National Institutes of Health) and normalized to PLCγ1, Akt or ERK contents. Equivalent protein loading among samples was monitored by β-actin (1:10000; Sigma) levels. […]

[2] = test system: Akt; test: p-Akt in hippocampal lysates of naive mice after i.v. peptide; assay type: in vivo, mouse; conditions: 10 mg/kg i.v., 3 hr
Description: Animals were anesthetized with pentobarbital (200 mg/kg i.p.) and decapitated, and the head was quickly immersed in liquid nitrogen for 4 s to rapidly cool the brain. The hippocampi were rapidly dissected on ice and homogenized in RIPA buffer, incubated on ice for 15 min, and centrifuged at 200,000×g for 10 min at 4° C. The supernatant was collected and stored at −80° C. until further analysis. TrkB was immunoprecipitated using TrkB antibody (1:1000, Millipore) and the lysates were incubated with 100 μL of protein A-Sepharose beads (Roche) overnight in 4° C. The beads/immune complexes were pelleted in a microcentrifuge and then resuspended in RIPA buffer and this procedure was repeated two additional times before adding 2×SDS PAGE sample buffer and boiled. After SDS PAGE, the gels were probed with TrkB and PLCγ1 antibody (1:1000, Cell signaling). Western blotting was conducted as previously described (He et al., 2010). Cell lysate and hippocampal homogenate were probed with p-PLCγ1 (pY783), PLCγ1, p-Akt (pS473), Akt, p-ERK (p44/p42) and ERK (1:1000, Cell signaling). The immunoreactivity of individual bands on western blots was measured by ImageJ software (National Institutes of Health) and normalized to PLCγ1, Akt or ERK contents. Equivalent protein loading among samples was monitored by β-actin (1:10000; Sigma) levels. […]

## YGRKKRRQRRR-LQNLAKASPVpYLDI (YGRKKRRQRRRLQNLAKASPV[pY]LDI) [pY816]
[1]; 10 mg/kg i.v. immediately after diazepam
  inhibition of SE-induced activation of PLCγ1 (p-PLCγ1 pY783 to PLCγ1 ratio): ~75%
[1]; 20 mg/kg i.v. immediately after diazepam
  inhibition of SE-induced activation of PLCγ1 (p-PLCγ1 pY783 to PLCγ1 ratio): ~75%
[2]
  p-Akt in hippocampal lysates: neither p-Akt nor p-ERK was affected
